Results taken from patent US11104648B2, “Pyrazole derivative” (Zhejiang Research Institute of Chemical Industry Co., Ltd., priority 2018, dated 2021).
Read-outs that look alike come from different tables or passages of the source.

How the values were obtained:
Assay type in all cases: in vivo
[1] = tested on: adult Tetranychus cinnabarinus; experiment: Activity assay of adult Tetranychus cinnabarinus (whole-plant spray on bean seedlings); conditions: 48 h; for pest or weed control at 1.25 µg/mL: concentration 1.25 mg/L
Method in brief: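 Bean seedlings at two-true-leaf stage, infested with adult mites and base count taken, sprayed whole-plant with compound in DMF (≤10%) diluted in 1‰ Tween 80. Three replicates per treatment kept in standard observation room. Surviving mites counted at 48 h to give death rate.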

[2] = tested on: Eggs of Tetranychus Cinnabarinus; experiment: Activity assay of eggs of Tetranychus cinnabarinus (spray method, ovicidal); conditions: Tetranychus cinnabarinus; for pest or weed control at 2 µg/mL: concentration 2 mg/L
Method in brief: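 Female mites laid eggs on broad bean leaves for 24 h, adults removed, eggs sprayed with compound in DMF (≤10%)/1‰ Tween 80. Held at 26±2° C, 70–80% humidity, 16 h light; unhatched eggs counted dead once blank control hatched. Three replicates.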

[3] = tested on: Tetranychus cinnabarinus Nymphs; experiment: Activity assay of Tetranychus cinnabarinus nymphs (spray on broad bean leaves)
Method in brief: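 Compound in DMF (≤10%) diluted in 1‰ Tween 80 water was sprayed onto broad bean leaves carrying nymphs hatched from eggs laid by female adults over 24 h. Kept at 26±2° C., 70%–80% humidity, 16 h light; mortality (no response to touch) assessed after 48 h, three replicates with blank control.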

[4] = concentration 2.5 mg/L, read-out: adult mite-killing activity
[5] = concentration 5 mg/L, spray, non-incubated eggs counted as dead, read-out: ovicidal activity
[6] = 48 h, concentration 2.5 mg/L, read-out: nymph-killing activity
[7] = read-out: adult mite-killing activity
[8] = spray, read-out: ovicidal activity
[9] = 48 h, concentration 2 mg/L, read-out: nymph-killing activity
[10] = 48 h, read-out: nymph-killing activity
[11] = concentration 2.5 mg/L, 48 h, read-out: nymph-killing activity

SMILES	pest or weed control at 2.5 µg/mL [1, 4]	pest or weed control at 5 µg/mL [2, 5]	pest or weed control at 2.5 µg/mL [3, 6]	also measured
Cc1nn(C)c(/C(OCOC(=O)C(F)(F)F)=C(\C#N)c2ccc(C(C)(C)C)cc2)c1Cl [Compound 88]	≥ 90%	≥ 90%	≥ 95%	
CCn1nc(C)c(Cl)c1/C(OCOC(=O)COC)=C(\C#N)c1ccc(C(C)(C)C)cc1 [Compound 308]	≥ 90%	≥ 90%	≥ 95%	
CCC(C)(C)C(=O)OC(C)O/C(=C(/C#N)c1ccc(C(C)(C)C)cc1)c1c(Cl)c(C)nn1C (stereo not drawn) [Compound 116]	≥ 90%	≥ 90%	≥ 95%	
CCn1nc(C)c(C)c1/C(OC(C)OC(=O)C(C)(C)C)=C(\C#N)c1ccc(C(C)(C)C)cc1 (stereo not drawn) [Compound 405]	≥ 90%	≥ 90%	≥ 95%	pest or weed control at 1.25 µg/mL [1, 7]: ≥ 90%; pest or weed control at 2 µg/mL [2, 8]: ≥ 90%; pest or weed control at 2 µg/mL [3, 9]: ≥ 90%
COC(=O)COC(=O)OCO/C(=C(/C#N)c1ccc(C(C)(C)C)cc1)c1cc(C)nn1C [Compound 477]	≥ 90%	≥ 90%	≥ 95%	
CCn1nc(C)c(C)c1/C(OC(C)OC(=O)CF)=C(\C#N)c1ccc(C(C)(C)C)cc1 (stereo not drawn) [Compound 412]				pest or weed control at 2.5 µg/mL [1, 7]: ≥ 90%; pest or weed control at 5 µg/mL ([2]; read-out: ovicidal activity): ≥ 90%; pest or weed control at 2.5 µg/mL [3, 10]: ≥ 95%
CCn1nc(C)cc1/C(OCOC(=O)SCC(=O)OC)=C(\C#N)c1ccc(C(C)(C)C)cc1 [Compound 577]	≥ 90%	≥ 90%	≥ 95%	
CCC(=O)OCO/C(=C(/C#N)c1ccc(C(C)(C)C)cc1)c1c(Cl)c(C)nn1C [Compound 77]	≥ 90%	≥ 90%	≥ 95%	
CCn1nc(C)c(C)c1/C(OCOC(=O)CSC)=C(\C#N)c1ccc(C(C)(C)C)cc1 [Compound 385]	≥ 90%	≥ 90%	≥ 95%	
Cc1cc(/C(OCOC(=O)CF)=C(\C#N)c2ccc(C(C)(C)C)cc2)n(C)n1 [Compound 12]				pest or weed control at 2.5 µg/mL [1, 7]: ≥ 90%; pest or weed control at 5 µg/mL ([2]; read-out: ovicidal activity): ≥ 90%; pest or weed control at 2.5 µg/mL [3, 10]: ≥ 95%
CCn1nc(C)cc1/C(OCOC(=O)Cc1ccccc1)=C(\C#N)c1ccc(C(C)(C)C)cc1 [Compound 240]	≥ 90%	≥ 90%		pest or weed control at 2.5 µg/mL [3, 11]: ≥ 95%
CCn1nc(C)cc1/C(OCOC(=O)OCCC(C)C)=C(\C#N)c1ccc(C(C)(C)C)cc1 [Compound 554]	≥ 90%	≥ 90%	≥ 95%	
Cc1nn(C)c(/C(OCOC(=O)CF)=C(\C#N)c2ccc(C(C)(C)C)cc2)c1C [Compound 162]				pest or weed control at 2.5 µg/mL [1, 7]: ≥ 90%; pest or weed control at 5 µg/mL ([2]; read-out: ovicidal activity): ≥ 90%; pest or weed control at 2.5 µg/mL [3, 10]: ≥ 95%
CCn1nc(C)c(C)c1/C(OCOC(=O)C1CC1)=C(\C#N)c1ccc(C(C)(C)C)cc1 [Compound 384]	≥ 90%	≥ 90%	≥ 95%	
CCn1nc(C)cc1/C(OC(C)OC(=O)OCC(C)C)=C(\C#N)c1ccc(C(C)(C)C)cc1 (stereo not drawn) [Compound 585]	≥ 90%	≥ 90%	≥ 95%	pest or weed control at 1.25 µg/mL ([1]; adult mites, parallel determination, read-out: Death rate (%)): 100%; pest or weed control at 1.25 µg/mL [1, 7]: ≥ 90%; pest or weed control at 2 µg/mL [2, 8]: ≥ 90%; pest or weed control at 2 µg/mL ([2]; eggs, parallel determination, read-out: Death rate (%)): 100%; pest or weed control at 2 µg/mL [3, 9]: ≥ 90%; pest or weed control at 0.5 µg/mL ([3]; 48 h, nymphs, concentration 0.5 mg/L, parallel determination, read-out: Death rate (%)): 96%
Cc1cc(/C(OC(C)OC(=O)OCC(C)C)=C(\C#N)c2ccc(C(C)(C)C)cc2)n(C)n1 (stereo not drawn) [Compound 489]	≥ 90%	≥ 90%	≥ 95%	

SMILES	pest or weed control at 2.5 µg/mL [1, 4]	pest or weed control at 5 µg/mL [2, 5]	pest or weed control at 2.5 µg/mL [3, 6]	also measured
CCn1nc(C)cc1/C(OCOC(=O)C1CCCCC1)=C(\C#N)c1ccc(C(C)(C)C)cc1 [Compound 236]	≥ 90%	≥ 90%	≥ 95%	
CCn1nc(C)c(Cl)c1/C(OC(C)OC(=O)C(C)C)=C(\C#N)c1ccc(C(C)(C)C)cc1 (stereo not drawn) [Compound 329]	≥ 90%	≥ 90%	≥ 95%	
C=CCOC(=O)OC(C)O/C(=C(/C#N)c1ccc(C(C)(C)C)cc1)c1cc(C)nn1C (stereo not drawn) [Compound 506]	≥ 90%	≥ 90%	≥ 95%	
Cc1nn(C)c(/C(OC(C)OC(=O)Cc2ccccc2)=C(\C#N)c2ccc(C(C)(C)C)cc2)c1Cl (stereo not drawn) [Compound 115]	≥ 90%	≥ 90%		pest or weed control at 2.5 µg/mL [3, 11]: ≥ 95%
CCCCCOC(=O)OCO/C(=C(/C#N)c1ccc(C(C)(C)C)cc1)c1cc(C)nn1CC [Compound 556]	≥ 90%	≥ 90%	≥ 95%	
COCC(=O)OCO/C(=C(/C#N)c1ccc(C(C)(C)C)cc1)c1c(C)c(C)nn1C [Compound 158]	≥ 90%	≥ 90%	≥ 95%	
CC(=O)OCO/C(=C(/C#N)c1ccc(C(C)(C)C)cc1)c1c(C)c(C)nn1C [Compound 151]	≥ 90%	≥ 90%	≥ 95%	
C=CC(=O)OC(C)O/C(=C(/C#N)c1ccc(C(C)(C)C)cc1)c1c(C)c(C)nn1CC (stereo not drawn) [Compound 417]	≥ 90%	≥ 90%	≥ 95%	
C=CC(=O)OCO/C(=C(/C#N)c1ccc(C(C)(C)C)cc1)c1cc(C)nn1C [Compound 17]	≥ 90%	≥ 90%	≥ 95%	
CCn1nc(C)c(Cl)c1/C(OC(C)OC(=O)CSC)=C(\C#N)c1ccc(C(C)(C)C)cc1 (stereo not drawn) [Compound 335]	≥ 90%	≥ 90%	≥ 95%	
CCn1nc(C)cc1/C(OCOC(=O)OCCCl)=C(\C#N)c1ccc(C(C)(C)C)cc1 [Compound 558]	≥ 90%	≥ 90%	≥ 95%	
C=CCOC(=O)OCO/C(=C(/C#N)c1ccc(C(C)(C)C)cc1)c1cc(C)nn1CC [Compound 570]	≥ 90%	≥ 90%	≥ 95%	pest or weed control at 1.25 µg/mL [1, 7]: ≥ 90%; pest or weed control at 2 µg/mL [2, 8]: ≥ 90%; pest or weed control at 2 µg/mL [3, 9]: ≥ 90%
CCCCC(=O)OC(C)O/C(=C(/C#N)c1ccc(C(C)(C)C)cc1)c1cc(C)nn1CC (stereo not drawn) [Compound 256]	≥ 90%	≥ 90%	≥ 95%	
CCn1nc(C)cc1/C(OCOC(=O)c1ccccc1)=C(\C#N)c1ccc(C(C)(C)C)cc1 [Compound 239]	≥ 90%	≥ 90%	≥ 95%	
CCn1nc(C)cc1/C(OCOC(=O)OC(C)C)=C(\C#N)c1ccc(C(C)(C)C)cc1 [Compound 550]	≥ 90%	≥ 90%	≥ 95%	pest or weed control at 1.25 µg/mL [1, 7]: ≥ 90%; pest or weed control at 2 µg/mL [2, 8]: ≥ 90%; pest or weed control at 2 µg/mL [3, 9]: ≥ 90%
COCC(=O)OCO/C(=C(/C#N)c1ccc(C(C)(C)C)cc1)c1c(Cl)c(C)nn1C [Compound 83]	≥ 90%	≥ 90%	≥ 95%	
